Entries after “also recorded” stand apart in the source; their conditions may differ.
Assays:
[1] = Cytotoxicity in the anti-HIV assay: detectable changes in cell morphology or loss of monolayer adherence to the culture plate; assay type: cell-based; details: human, ht46c cells; below threshold = no detectable changes in cell morphology or loss of monolayer adherence
Description: (§1) 1,1'-bisdeoxygossypol (BDG), 1,1'-bisdeoxygossylic acid (BDGA), 8-deoxyhemigossypol (DHG) and 8-deoxyhemigossylic acid (DHGA) were synthesized and tested for their ability to inhibit the replication of HIV in vitro.
(§2) After treatment of the wells with DEAE-dextran, stock virus was added at a concentration that produces 100 -200 foci/well on day 3 in positive control wells. Test compounds were added, and plates incubated for 3 days at 37° C., 5% CO2. Monolayers were fixed with methanol and wells analyzed with a focal immunoassay (FIA). The primary reagent used in the FIA was a polyclonal antibody preparation of sera from AIDS patients. The secondary reagent was a goat anti-human IgG antibody tagged with horseradish peroxidase. The substrate was 3-amino-9-ethylcarbazole in sodium acetate buffer with hydrogen peroxide. Each compound was tested at concentrations of 0.01, 0.1, 1.0, 5.0 and 20 μM. GIL was tested as a standard for comparison.

HT46c (HeLaT4+) cells = assay: as above; assay type: cell-based; details: for cytotoxicity: in words
Description: as §1, §2

[2] = system: H9/HIV-IIIB in HT46c cells; assay: Anti-HIV assay in vitro: inhibition of HIV replication, focal immunoassay (reduction in foci); assay type: cell-based, HIV-1; details: for anti-HIV activity: in words, tested at 0.01, 0.1, 1.0, 5.0 and 20 μM; for reduction in foci at 5 μM: GIL compared with BDGA
Description: 1,1'-bisdeoxygossypol (BDG), 1,1'-bisdeoxygossylic acid (BDGA), 8-deoxyhemigossypol (DHG) and 8-deoxyhemigossylic acid (DHGA) were synthesized and tested for their ability to inhibit the replication of HIV in vitro. The EC50 for BDGA was <1 μM and its threshold cytotoxicity was approximately 20 μM. […] Like BDGA, the Ec50 for GIL was <1 μM. […] BDG, on the other hand, was ineffective at 1 μM and destroyed >80% of the cell monolayer at 5 μM.
as §2, with “The anti-HIV assay used was based on a published procedure (J.Virol. 62:3779-3788, 1988) using HT46c (HeLaT4+) cells as host cells for the H9/HIV-III8 strain of the HIV-1 virus. The cells were seeded into 6-well plates, 5×10^4 cells/well, in RPMI 1640 with 10% FBS and allowed to attach overnight. After” for “After”

HIV = details: previously found, in vitro; cited from earlier work
[3] = previously shown in similar assays (Pharmacol.Res.); cited from earlier work

SMILES	cytotoxicity (HT46c (HeLaT4+) cells)	anti-HIV activity [2]	toxicity at 5.0 μM (HT46c (HeLaT4+) cells)	reduction in foci at 5 μM [2]	other results
Cc1ccc2c(C=O)c(O)c(O)c(C(C)C)c2c1 [DHG, 2,3-dihydroxy-6-methyl-4-(1-methylethyl)-1-naphthaldehyde]	more cytotoxic	some anti-HIV activity; also recorded: less active			MCC [1]: 54 µM
Cc1ccc2c(C(=O)O)c(O)c(O)c(C(C)C)c2c1 [DHGA, 2,3-dihydroxy-6-methyl-4-(1-methylethyl)-1-naphthoic Acid]	very low cytotoxicity	ineffective against HIV			effect on cell morphology at 20 μM (HT46c (HeLaT4+) cells; even at 20 μM): no observable effect on viral replication or cell morphology; effect on viral replication at 20 μM ([2]; even at 20 μM): no observable effect on viral replication
Cc1cc2c(C(C)C)c(O)c(O)c(C(=O)O)c2cc1-c1cc2c(C(=O)O)c(O)c(O)c(C(C)C)c2cc1C [BDGA, 6,6',7,7'-Tetrahydroxy-3,3'-dimethyl-5,5'-bis(1-methylethyl)[2,2'-binaphthalene]-8,8'-dicarboxylic Acid]		approximately as effective as GIL	No toxicity was noted	same reduction in foci	monolayer destruction at 20 μM (HT46c (HeLaT4+) cells; 20 μM): Some signs of monolayer destruction
Cc1cc2c(C(C)C)c(O)c(O)c3c2c(c1-c1c(C)cc2c(C(C)C)c(O)c(O)c4c2c1OC4=N)OC3=N [GIL, gossylic iminolactone]			No toxicity was noted	same reduction in foci	anti-HIV activity relative to gossypol (HIV): more active; also recorded: more effective than gossypol; cytotoxicity relative to gossypol [3]: less cytotoxic than gossypol
Cc1cc2c(C(C)C)c(O)c(O)c(C=O)c2cc1-c1cc2c(C=O)c(O)c(O)c(C(C)C)c2cc1C [BDG, 6,6',7,7'-Tetrahydroxy-3,3'-dimethyl-5,5'-bis(1-methylethyl)[2,2'-binaphthalene]-8,8'-dicarboxaldehyde]	much more cytotoxic than BDGA	less effective against HIV			destruction of the cell monolayer at 5 μM (HT46c (HeLaT4+) cells; 5 μM): > 80%; anti-HIV activity at 1 μM ([2]; 1 μM): ineffective

Source: patent US5936120A, “Deoxygossylic compounds” (University of New Mexico, priority 1997, dated 1999)
